{"source": "patent US20240025849A1", "about": "(MAX DELBRÜCK-CENTRUM FÜR MOLEKULARE MEDIZIN IN DER …, priority 2020, published 2024)", "key": {"[1]": {"assay": "Intravenous tissue distribution study in mice", "type": "in vivo, mouse"}, "[2]": {"test_system": "nNOS", "assay": "NOS enzyme activity assay (Eurofins), nNOS", "type": "biochemical", "conditions": "C1: 1 nM and 1 μM; 30 min reaction", "procedure": "In mammalians NO is produced by the three isoforms of NOS: iNOS, eNOS, and nNOS. To evaluate the direct influence of cl on the different isoforms of NOS, an enzyme activity assay was conducted by Eurofins. C1 was mixed with the enzyme buffer, which included co-factors and substrates and by adding the enzyme the reaction was initiated. After 30 min the reaction was stopped, and NO concentration was measured. The results are normalised to positive control performed without any additional compounds and are presented as percentage in inhibition. […] To test the compounds effect on iNOS a concentration range from […] 5 μM were applied ([…], 1, 10, 100 nM, 1, and 5 μM), and for testing eNOS and nNOS 1 nM and 1 μM were applied."}, "[3]": {"test_system": "primary cultured neonatal astrocytes", "assay": "AlamarBlue assay in astrocytes", "type": "cell-based", "conditions": "2.5 μM C1, 48 hours, unstimulated", "procedure": "Primary cultured neonatal astrocytes. The preparation of primary cultured neonatal astrocytes followed the preparation of the primary cultured neonatal microglia, described above. After the third shake off, the remaining astrocytes were trypsinated, washed with PBS and seeded into a 96 well plate (10 000 cells/well, 200 μL medium per well).\nAlamarBlue assay. Cells were seeded according to the protocols described above, after compounds and stimuli were added, the cells were washed once with HBSS (37° C.) and 100 μl of a 1:10 AlamarBlue (Thermo Fisher Scientific) dilution in plain medium was added. The conversion of resazurin to resorufin was measured by absorbance (absorbance wavelength of 570 nm and a reference wavelength of 600 nm) after 3 hours.\nThe inventors evaluated the metabolic activity, proliferation and cell death of primary cultured neonatal microglia, primary cultured neonatal astrocytes and the oligodendrocyte cell line OLN-93 under physiological conditions. All cells were treated with 2.5 μM C1 in DMSO or the corresponding DMSO concentration (125×10-5 v/v) for 48 hours without any additional stimulation followed by either an AlamarBlue assay to measure the metabolic activity, or an propidium iodide based proliferation and cell death assay. The data of the AlamarBlue assay and proliferation assay were normalised to the plain medium control. […]"}, "[4]": {"test_system": "primary cultured neonatal microglia", "assay": "AlamarBlue assay (metabolic activity / cell viability) in microglia", "type": "cell-based, mouse", "procedure": "(§1) Primary cultured neonatal microglia. For preparation of cultured neonatal microglia, P0-P3 mice were used. 10 brains were extracted, meninges and cerebellum were removed and put on ice with Hank's balanced salt solution (HBSS). The dissected brains were washed 3 times before adding 400 μL trypsin (0.1 mg/L) and DNAse (5 μg/L) in phosphate buffered saline (PBS). After 2 min of incubation with this solution, the reaction was blocked by adding plain medium. After removal of the medium, 1 mg DNAse was added and the cells were mechanically dissociated, with a Pasteur pipette followed by a glass pipette. The cells were centrifuged for 10 min at 129 g at 4° C. The supernatant was discarded. The pellet was resuspended in plain medium and plated (2.5 brains/flask) in Poly-L-Lysine coated flasks. The cells were washed after 2 days with PBS and incubated for another 7 days in plain medium. Afterwards the medium was replaced by plain medium with 33% L929 conditioned medium. After 2 days, cells were harvested by shaking them for 30 min at 150 rpm. The supernatant was centrifuged for 10 min at 129 g at 4° C. The cells were plated into a 96 well plate (100 000 cells/well, 200 μL medium per well). This procedure could be repeated 2 times with a 2 day interval.\nConcentration-dependent validation and viability determination. Concentrated stock solutions of compounds identified from primary screening were rearranged onto anew 384-well plate, and 10 sequential 2-fold serial dilutions were created across multiple plates in DMSO. Starting from these diluted compound mother plates, the protocol was repeated exactly as for primary screening to span the concentration range between 5 μM and 20 nM. In order to obtain the 10 μM and 20 μM concentration points, 1000 n1 and 2000 n1 were transferred from the 500 μM pre-dilution plate, respectively. Each concentration was measured in duplicate. Normalized percent activities were plotted against the compound concentration to obtain the IC50 values. To obtain also information about the impact of compounds on cell viability, a second batch of plates was prepared as described above, but 5 μl of Alamar Blue solution was added after 48 hours instead of Griess reagent and incubation was continued for additional 4 hours at 37° C. Finally, the resorufin fluorescence was detected at an excitation wavelength of 530 nm and emission of 570 nm. Since no control samples were present on the assay plate for data normalization of cell viability, the raw data values were added on the second y-scale to the IC50 plots.\nAlamarBlue assay. […] The conversion of resazurin to resorufin was measured by absorbance (absorbance wavelength of 570 nm and a reference wavelength of 600 nm) after 3 hours."}, "[5]": {"test_system": "primary cultured neonatal microglia", "assay": "Cytokine release (IL1β, IL6, TNFα) ELISA in microglia", "type": "cell-based, mouse", "procedure": "as §1\nEnzyme-linked immunosorbent assay (ELISA). Cells were seeded according to the protocols described above, after compounds and stimuli were added, the supernatant was collected, centrifuged (500 g, 5 minutes) and stored at −20° C. until analysed. The following kits from Bio-Techne (Minneapolis, USA) were used to detect IL1β, IL6 and TNFα: ELISA Mouse IL-1β/IL-1F2 Duo Set, ELISA Mouse IL-6, ELISA Mouse TNFα. ELISA assays were performed according to the manufacturers protocol."}, "[6]": {"conditions": "1 h C1, then 1 μg/ml LPS 48 hours"}, "[7]": {"conditions": "unstimulated microglia, 48 hours"}}, "note": "Entries after “also recorded” stand apart in the source; their conditions may differ.", "data": [{"smiles": "COc1ccc(NC(=O)C(NC(=O)C2CCCN2C(=O)OCc2ccccc2)c2ccc(OC)cc2)cc1", "note": "(stereo not drawn) [C1]", "values": [{"measurement": "passage of the blood brain barrier", "setting": "[1]; 5 mg/kg intravenous", "result": "passes the blood brain barrier"}, {"measurement": "concentration in brain", "setting": "[1]; 30 minutes after 5 mg/kg intravenous", "result": 1, "unit": "μM/g tissue"}, {"measurement": "concentration in brain", "setting": "[1]; 4 hours after 5 mg/kg intravenous", "result": 2.4, "unit": "nM/g tissue"}, {"measurement": "enzymatic activity of nNOS", "setting": "[2]", "result": "does not interfere"}, {"measurement": "metabolic activity of astrocytes", "setting": "[3]", "result": "no influence; also recorded: not affected"}, {"measurement": "cell viability", "setting": "[4]; 2 nM to 20 μM, 1 μg/ml LPS 48 h", "result": "no effects on cell viability"}, {"measurement": "metabolic activity", "setting": "[4]; 20 μM C1, 1 μg/mL LPS 48 h", "result": "84%±3.99"}, {"measurement": "metabolic activity in unstimulated microglia", "setting": "[4]; C1 alone 0.025, 0.25, 2.5 μM, 48 hours", "result": "did not show any significant difference; also recorded: nor did it interfere with the metabolic activity"}, {"measurement": "metabolic activity (AlamarBlue)", "setting": "[4]; HTS setup, LPS stimulated", "result": "remained stable"}, {"measurement": "LPS induced IL1β release", "setting": "[5]; 0.025, 0.25, 2.5 μM C1, 1 μg/ml LPS 48 hours", "result": "exceeded the LPS-induced release; also recorded: exceeds the stimulated control significantly"}, {"measurement": "LPS induced IL6 release", "setting": "[5]; [6]", "result": "no effect; also recorded: did not show a reduction"}, {"measurement": "LPS induced TNFα release", "setting": "[5]; [6]", "result": "no effect; also recorded: did not show a reduction"}, {"measurement": "IL1β release, C1 alone", "setting": "[5]; [7]", "result": "did not show any significant changes; also recorded: does not alter"}, {"measurement": "IL6 release, C1 alone", "setting": "[5]; [7]", "result": "did not show any significant changes; also recorded: does not alter"}, {"measurement": "TNFα release, C1 alone", "setting": "[5]; [7]", "result": "did not show any significant changes; also recorded: does not alter"}]}]}
